Assay results reported in patent publication US8178506B2, “Oligomeric compounds and compositions for use in modulation of small non-coding RNAs” (Regulus Therapeutics Inc., priority 2003, dated 2012).
“And” between values parts separate entries of the source, which are not always exact repeats. Equal values may be shown once. In the oligonucleotide strings, read from the 5' end, every base follows the letter of its sugar. An asterisk marks phosphorothioate; unmarked linkages are phosphodiester. Other units and linkages are bracketed, terminal groups are in braces. A string of capitals states the bases alone. e = 2'-O-(2-methoxyethyl) (MOE); [5mC] = 5-methylcytosine; d = 2'-deoxy (DNA)

Test system: HeLa cells
Assay: Cell cycle assay in HeLa cells
Format: cell-based, human
Conditions: HeLa cells; for % cells in cell cycle phase: G1 / % cells in cell cycle phase: G2/M / % cells in cell cycle phase: S / % cells in cell cycle phase: aneuploid / % cells in cell cycle phase: subG1: 48 hours after treatment, relative to untreated control (UTC=100)
Protocol: In some embodiments, HeLa cells were plated on collagen-coated 24-well plates at 50,000-60,000 cells per well, and allowed to attach to wells overnight. In some embodiments, HeLa cells were synchronized by double thymidine block (cells were washed three times with PBS, then grown in 10% FBS containing 2 mM thymidine; then 19 hours later, cells were washed three times in PBS, 10% FBS for 9 hours; cells were then incubated in 10% FBS, 2 mM thymidine for 15 hours; then washed three times with PBS, 10% FBS and samples were taken every two hours over a 16 hour period). A portion of each time sample was fixed with ethanol and treated with propidium iodide and subjected to FACs analysis for determination of the percentage of cells in each phase of the cell cycle. […] HeLa cells treated with 10 μM cisplatin or 100 ng/ml nocodazole were used as controls for G1-phase and late G2/M-phases, respectively. From the remaining portion of each of these time samples, total RNA was isolated and used to assess the expression of cell cycle marker mRNAs using the real-time RT-PCR methods and/or used to screen microarrays to assess the expression of miRNAs over the course of the cell cycle. It was observed that several miRNAs are expressed in a cell-cycle-dependent manner. Shown in Table 30 are the mRNA levels of the E2F1 transcription factor and topoisomerase 2A (Top2A), which vary over the course of the cell cycle and can be used for comparison to the experimental groups for the confirmation of cell cycle phase. Data are an average of three trials.
In some embodiments, HeLa cells were also treated with oligomeric compounds targeting miRNAs. […] The medium was removed from the plates. Each well was washed in 250 μl of PBS. […] Control cells received LIPOFECTIN™ only. […] After 24 hours (Table 31) or 48 hours (Table 32), cells were prepared for flow cytometry analysis to generate a cell cycle profile. The cell cycle profile was analyzed with the ModFit program (Verity Software House, Inc., Topsham Me.).
The random-mer ISIS 29848 (SEQ ID NO: 737) was used as a negative control, and ISIS 183891 (SEQ ID NO: 847), targeting kinesin-like 1/Eg5, was included as a positive control. Data are expressed as percentage of cells in each phase relative to the untreated control (UTC); values above 100 are considered to indicate a delay or arrest in that phase of the cell cycle. […] In some cases, the same oligomeric compound was tested in repeated experiments.
In accordance with the present invention, certain oligomeric compounds targeting miRNAs were selected for dose response studies. Using the cell cycle assay described above, the cell cycle profiles of HeLa or A549 cells treated with varying concentrations of oligomeric compounds of the present invention were assessed.
HeLa cells were treated with 25-, 50-, 100- or 150 nM of the oligomeric compounds ISIS
Numbers 327902 (SEQ ID NO: 320) and 328383 (SEQ ID NO: 492), both targeted against mir-192, and ISIS 327905 (SEQ ID NO: 323), targeting mir-205, and ISIS 328403 (SEQ ID NO: 512), targeting mir-106. Cells treated with increasing concentrations of oligomeric compounds were compared to untreated cells, to assess the dose-dependency of the observed delay or arrest. The random-mer ISIS 29848 was used as a negative control. Cells were prepared for flow cytometry 48-hours after oligonucleotide treatment, as described, supra.

[1] = 150 nM oligomeric compound, 24 hours, relative to untreated control (UTC = 100)
[2] = 150 nM, 48 hours, relative to untreated control

| Substance | % cells aneuploid [1] | % cells in cell cycle phase G1 [1] | % cells in cell cycle phase G2/M [1] | % cells in cell cycle phase S [1] [%] | % cells in cell cycle phase subG1 [1] | % cells in cell cycle phase: G1 (150 nM oligomeric compound) | % cells in cell cycle phase: G2/M (150 nM oligomeric compound) | % cells in cell cycle phase: S (150 nM oligomeric compound) | % cells in cell cycle phase: aneuploid (150 nM oligomeric compound) | % cells in cell cycle phase: subG1 (150 nM oligomeric compound) [%] | % cells in cell cycle phase G1 [2] [%] | % cells in cell cycle phase G2/M [2] [%] | % cells in cell cycle phase S [2] [%] | % cells in cell cycle phase aneuploid [2] [%] | % cells in cell cycle phase subG1 [2] [%] |
| --- | --- | --- | --- | --- | --- | --- | --- | --- | --- | --- | --- | --- | --- | --- | --- |
| 328337 (eG*e[5mC]*eT*eA*eG*dA*dT*dA*d[5mC]*dA*dA*dA*dG*dA*dT*eG*eG*eA*eA*eA) [compound 328337] | 104% and 64% | 106% and 108% | 113% and 109% | 88 | 107% and 99% | 92% and 73% | 119% and 135% | 105% and 143% | 108% and 74% |  |  |  |  |  |  |
| 328339 (eG*e[5mC]*eA*eG*e[5mC]*dG*d[5mC]*dA*dG*d[5mC]*dT*dG*dG*dT*d[5mC]*eT*e[5mC]*e[5mC]*e[5mC]*e[5mC]) [compound 328339] | 61% | 77% | 143% | 102 | 235% | 73% | 123% | 153% | 92% | 678 |  |  |  |  |  |
| 328674 (eT*eG*e[5mC]*e[5mC]*e[5mC]*dT*dG*d[5mC]*dT*d[5mC]*dA*dG*dA*dG*d[5mC]*e[5mC]*e[5mC]*eT*eA*eG; antisense) [compound 328674] | 69% | 125% | 84% | 93 | 564% | 69% | 109% | 160% | 134% | 1663 |  |  |  |  |  |
| 328676 (eA*e[5mC]*e[5mC]*eT*e[5mC]*d[5mC]*d[5mC]*dA*dG*d[5mC]*d[5mC]*dA*dA*dT*d[5mC]*e[5mC]*eA*eT*eG*eT; antisense) [compound 328676] | 169% | 99% | 134% | 86 | 139% | 86% | 118% | 118% | 172% | 366 |  |  |  |  |  |
| 328707 (eG*e[5mC]*eA*eA*e[5mC]*dA*dG*dG*d[5mC]*d[5mC]*dT*d[5mC]*dA*dA*dT*eA*eT*e[5mC]*eT*eT) [compound 328707] | 166% | 36% | 195% | 93 | 188% | 46% | 213% | 134% | 155% | 1486 | 103 | 122 | 87 | 140 | 125 |
| 328724 (antisense eG*eA*e[5mC]*eA*eT*d[5mC]*dA*dT*dG*dT*dG*dA*dT*dT*dT*eG*e[5mC]*eT*e[5mC]*eA) [compound 328724] | 197% | 91% | 135% | 90 | 155% | 70% | 140% | 134% | 155% | 653 |  |  |  |  |  |
